These results are taken from patent US20230390309A1, “TETRACYCLINE DERIVATIVES FOR TREATING NEURODEGENERATIVE OR NEUROINFLAMMATORY DISEASES” (INSTITUT DU CERVEAU ET DE LA MOELLE EPINIERE, priority 2020, published 2023).

For experiment [1], the system named is dopaminergic midbrain neurons (TH+). Put plainly: Neuroprotection of TH+ dopaminergic neurons in primary mouse midbrain cultures (spontaneous oxidative stress). It counts as cell-based. The settings on record: Neuron, 168 h, cultured for 7 days, estimated graphically, read-out: EC50 (concentration protecting 50% of TH+ neurons). The method, then:
The inventors have further shown that compounds 1-H and 1-Me exert robust and concentration-dependent neuroprotective effects in a cell model in which the dopaminergic midbrain neurons, vulnerable in Parkinson's disease, degenerate further to a spontaneous oxidative stress of low intensity resulting from the presence of catalytic iron in the culture medium (Guerreiro et al, J Neurochem. 2009; 109(4):1118-28; Rousseau et al, Mol Pharmacol. 2013; 84(6):888-98).
Cultures were carried out using embryos of Swiss mice (Janvier LABS, Le Genest St. Isles, 30 France), collected at 13.5 days of gestation. The experimental procedures were performed in accordance with Directive 2010/63/EU of the Council of the European Union, using a protocol validated by the Charles Darwin ethics committee no. 5. The protocol is based on techniques reported previously (Rousseau et al, 2013, supra; Lavaur et al, J Neurochem. 2017; 142(1):14-28), using an additional step of trypsinization with an EDTA (2mM)-trypsin (0.05%) solution to facilitate the dissociation of brain tissue. The cells in suspension are distributed in 48-well multi-well dishes (Nunc; ThermoFisher Scientific), at a density of 50-80. 10^3 cells/cm^2, using Dulbecco's Modified Eagle's Medium/Nutrient Mixture F-12 Ham (Sigma-Aldrich), supplemented with 10% fetal calf serum. After 2 hours, the cultures are washed completely and placed in the presence of the same medium containing only 20 μg/ml of bovine insulin. The cultures are also treated with cytarabine (1.5 μM) on the first day in vitro and on the following day to reduce the number of glial cells in the cultures.
These cultures contain between 1 to 2% of dopaminergic neurons. […] Assessment of the number of dopaminergic neurons is done by counting TH^+ neurons with a Nikon Eclipse Ti-U inverted microscope.
The reference molecule used to prevent the loss of dopaminergic neurons is apotransferrin (APO; Sigma Aldrich; 100 μg/ml), a protein that chelates ferric iron in culture medium.

Experiment [2] has as its target human recombinant monomeric α-Synuclein (Homo sapiens, UniProt P37840). Put plainly: Thioflavin-T fluorescence assay of α-Synuclein amyloid aggregation. It counts as biochemical. The note with it: test compound 100 μM; 70 μM α-Synuclein; after 144 hours of shaking; percent of optimal response without tetracycline. As for the experimental part: Aggregation studies were performed at 37° C. on samples containing 70 μM human recombinant monomeric α-Synuclein that were submitted to constant orbital agitation (Thermomixer Comfort, Eppendorf) at 600 rpm in the absence or in the presence of test compounds, at 100 μM. The formation of α-Synuclein aggregated species was monitored using the fluorescence probe Thioflavin-T (LeVine, Methods Enzymol. 1999, 309, 274-284; González-Lizárraga, et al. Sci Rep. 2017, 7, 41755), at a concentration of 25 μM. Changes in emission fluorescence were measured after 144 hrs of continuous shaking, at an excitation wavelength of 450 nm using a Horiba FluoroMax 4 spectrometer.

The test system of another experiment is E. coli DH5α. The experiment in a line: Disc diffusion assay to assess antimicrobial activities (inhibition of bacterial growth). It counts as cell-based. The settings on record: read-out: Minimal inhibitory concentration. The method, then:
The antibacterial activities of test compounds were evaluated using the disc diffusion method (Kavanagh, Academic Press, Inc., New York, 1963, 125-140; Pomares et al, J Bacteriol. 2008, 30 190, 4328-4334). Briefly, filter-paper discs impregnated with 10 μl of two-fold serial dilutions of test compounds were placed onto LB solid medium Petri dishes. Then, aliquots (50 μl) of an E. coli DH5α culture in stationary phase were mixed with 3 ml of top agar (0.7% agar) and overlaid onto the plates. After overnight incubation at 37° C., the plates were examined for different degrees of inhibition. The antibacterial efficacy of a test compound was estimated by the Minimum Inhibitory Concentration (MIC) assay that determines the lowest concentration inhibiting visible growth of bacteria. Each test was performed in duplicate vs. the reference compound, doxycycline (“DOX”).

[3] abbreviates: E. coli DH5α, disc diffusion, overnight incubation at 37° C., assayed twice.
Setting [4] is: Escherichia coli, E. coli DH5α, disc diffusion, overnight incubation at 37° C., assayed twice.

In brackets after ≈: the same amount, converted by molar mass. Like-named read-outs stand apart in the source and are kept apart here.

Consider `NC(=O)C1=C(O)C[C@@H]2C[C@H]3C(=C(O)C2C1=O)C(=O)c1c(O)ccc(Cl)c1[C@H]3O` (stereo partly drawn) [1-H, 7-chloro-3,6,10,12-tetrahydroxy-1,11-dioxo-1,4,4α,5,5α,6,11,12α-octahydrotetracene-2-carboxamide], for which the EC50 in experiment [1] is 810 nM. In addition, in experiment [2], the “residual Thioflavin-T fluorescence level” value worked out at 1.5%. For the same compound, the MIC in the experiment on E. coli DH5α (setting [3]) and with E. coli DH5α (Escherichia coli) was greater than 2000 µM throughout.
With `C[C@@]1(O)c2c(Cl)ccc(O)c2C(=O)C2=C(O)C3C(=O)C(C(N)=O)=C(O)C[C@@H]3C[C@@H]21` (stereo partly drawn) [1-Me, 7-chloro-3,6,10,12-tetrahydroxy-6-methyl-1,11-dioxo-1,4,4α,5,5α, 6,11,12α-octahydrotetracene-2-carboxamide], the EC50 in experiment [1] was 2010 nM. In addition, in experiment [2], the “residual Thioflavin-T fluorescence level” value is reported as 13.5%. The MIC in the experiment on E. coli DH5α (setting [3]) and in the experiment with E. coli DH5α (setting [4]) was greater than 2000 µM throughout.
Take `C[C@H]1c2cccc(O)c2C(=O)C2=C(O)[C@]3(O)C(=O)C(C(N)=O)=C(O)[C@@H](N(C)C)[C@@H]3[C@@H](O)[C@@H]21` [DOX, doxycycline, reference compound]: the EC50 in experiment [1] is 5200 nM. For the same compound, the “residual Thioflavin-T fluorescence level” value in experiment [2] was found to be 21.1%. In the experiment with E. coli DH5α (setting [4]), the MIC was determined as 62.5 µM (≈ 27.8 µg/mL).
